According to publication PMC5815658 (Journal of Medicinal Chemistry, 2017):
Converted amounts (≈) assume the structure as drawn.

What was measured:
pirin = molecular target: T1, pirin (Homo sapiens, UniProt O00625); test: TMT MS2 whole proteome mass spectrometry in SK-OV-3 cells; type: cell-based; set-up: endogenous in cells; host or cells: SK-OV-3; details: 50 nM, 4 h
T1 sequence (O00625 1-290): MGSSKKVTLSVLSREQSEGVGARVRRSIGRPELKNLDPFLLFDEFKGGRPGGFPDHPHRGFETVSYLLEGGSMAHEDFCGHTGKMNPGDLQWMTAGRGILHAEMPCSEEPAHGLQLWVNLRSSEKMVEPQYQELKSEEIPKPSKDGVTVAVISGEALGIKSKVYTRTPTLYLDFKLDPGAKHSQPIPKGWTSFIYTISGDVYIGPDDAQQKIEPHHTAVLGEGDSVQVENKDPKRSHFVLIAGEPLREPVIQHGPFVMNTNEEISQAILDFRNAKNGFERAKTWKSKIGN
Protocol: PDP 16 Quantified Mass Spectrometry in SK-OV-3 Cells
SK-OV-3 cells (enough to yield 50μg total protein per sample) treated with DMSO control or 50nM PDP 16 for 4 h. Cells were then harvested and lysed by scraping in urea lysis buffer (20mM HEPES pH 8.0, 9M urea, 1mM sodium orthovanadate, 2.5mM sodium pyrophosphate, 1mM β-glycerophosphate). Samples were sonicated and cent rifuged at 20,000 x g for 15 min and the protein extract (supernatant) collected . The experiment was performed in triplicates. The protein extract samples (supernatant) were then sent to www.proteomics.com, (Accessed September 7, 2017) for analysis.
Proteome Sciences’ proprietary TMT®MS2 workflow was applied for the analysis of total proteomic protein expression. In addition, Proteome Sciences’ bioinformatics tools were applied for data normalization, data integration and statistical analysis .
We identified 107318 unique peptides and 8 785 unique protein groups. This coverage of the proteome is within our normal range for peptide and protein identifications in cell line samples. […]
component analysis (PCA) plots explaining ~64% o f the variance of statistically significant features at peptide level. This observation was consistent with the result at protein level.
Using Proteome Sciences’ proprietary TMT®MS2 workflow on a cohort of SK-OV-3 cell line samples derived from ICR’s pirin degradation probe (n=3) and DMSO control (n=3). A reference sample was created from pooling the other samples.
PAGE confirming a good sample quality. Thus, all samples were processed following TMT®MS2 workflow.
All LC-MS/MS runs passed internal quality assessments, based on total ion counts (TICs) and number of peptide spectral matches (PSMs), considering the MS method to be used for data acquisition. Labelling efficiency was over 98.5% across all fractions.
TMT®MS2 identified 8785 unique protein groups from 107318 unique peptide sequences. This is within the typical range of protein and peptide identifications from cell line samples.
Total Peptide Spectral Match: 316215
Total Unique Peptide Sequences: 107318
Total Unique Protein IDs: 8785
Median Standard Deviation and Inter Quartile Range (IQR) were measured for each sample. […]
Protein solutions of SK -OV-3 cell line samples derived from ICR’s pirin degradation probe (n=3) and DMSO control (n=3) were provided in 9M urea 20 mM HEPES, 1 mM activated sodium orthovanadate, 2.5 mM sodium pyrophosphate, 1 mM b-glycerol-phosphate at pH 8.0. […] The protein concentration of the supernatant was determined by Bradford protein assay and each sample visualized by Coomassie stained (Imperial Stain, Pierce) SDS-PAGE 4-20% gradient gels (Criterion, Biorad) using 10 µg of each sample. […]

[1] = LogD7.4 determination by RP-HPLC; details: pH 7.4
Protocol: Kinetic Solubility Determination
(§1) Kinetic Solubility values were determined via an in-house RP-HPLC method. Calibration standards were prepared at a
(§2) concentration of 100 M in 100 % DMSO. Calibration was achieved by injecting 0.5, 2.5 and 5 L of the 100 M standard.
The supernatant was removed and a small
(§3) volume of DMSO was added to ensure the compound remained in solution. Kinetic solubility values were determined by
(§4) substituting the AUC (Area Under the Curve) of the kinetic solubility samples into the equation obtained from the linear part of
(§5) Injections (with needle wash) of the calibration and kinetic solubility samples were made onto a Phenomenex Kinetex C18
(§6) column (5 µm, 50 mm x 4.6 mm, 100A, Phenomenex, Torrence, USA). Chromatographic separation at 30 °C was carried out
(§7) modified with 0.1 % formic acid) at a flow rate of 1.5 mL/min.
(§8) array detector (Agilent, Santa Clara, USA). Raw data was processed using Agilent Chemstation Rev.C.01.05.8. The data was then […]
(§9) LogD7.4 values were determined via an in-house RP-HPLC method based on previous work by Kerns and Di.4 Calibration was […]
(§10) by comparing HPLC-determined Log D7.4 values of two other commercially-available drugs with literature Log D7.4 values. […]
(§11) HPLC Log D7.4 values of in-house compounds were determined by substituting the compounds’ retention times into the equation […]

[2] = Kinetic solubility determination by RP-HPLC; details: PBS, pH 7.4, aqueous buffer, kinetic from dmso stock
Protocol: Kinetic Solubility Determination
as §1, §2
The supernatant was removed and a small
as §3, §4, §5, §6, §7, §8, §9, §10, §11

[3] = PDP aqueous stability protocol; details: 37 °C
Protocol: PDP Aqueous Stability Protocol.
1) Using 1000 µL pipette, dispense 990 µL of pH 7.4 PBS buffer into a 1.5 mL micro centrifuge tube. Using 10 µL pipette,
add 10 µL of a freshly prepared 10 mM compound DMSO stock solution into the PBS buffer.
2) Mix for 5 seconds on vortex mixer to create 100 µM stock solution.
3) Agitate 100 µM stock solution (500 rpm, Bohdan Shaker) for 120 minutes at room temperature and the centrifuge for 15
4) Using a 1000 µL pipette approx. 700 µL was carefully decanted from the micro centrifuge tube and put into a vial to
5) To produce a t = 0 sample; using a 200 µL pipette, 50 µL of DMSO was dispensed into insert vial. Then, using a 200 µL
pipette, 200 µL from solution A was added into the insert vial and vortexed for 5 seconds to produce a sample for HPLC
6) The vial containing solution A was then warmed to 37 °C, with stirring, and aliquots were taken at regular time intervals
using the same procedure as described in step 5.
Assuming first-order decay:

O=C1CCC(N2C(=O)c3cccc(OCCOCCOCCN4CCN(Cc5ccc6cc(C(=O)Nc7cc(NC(=O)c8ccc9c(c8)OCCO9)ccc7Cl)ccc6n5)CC4)c3C2=O)C(=O)N1 (stereo not drawn) [PDP 16, N-(2-Chloro-5-(2,3-dihydrobenzo[b][1,4]dioxine-6-carboxamido)phenyl)-2-((4-(2-(2-(2-((2-(2,6-dioxopiperidin-3-yl)-1,3-dioxoisoindolin-4-yl)oxy)ethoxy)ethoxy)ethyl)piperazin-1-yl)methyl)quinoline-6-carboxamide]
Proteins with statistically significant (p(adj) < 0.05) difference in expression (pirin; 8547 quantifiable proteins): only pirin | P.Value pirin (PIR, O00625), PDP vs Veh (pirin; TMT): 1.64E-08 | Reduction of pirin protein expression vs vehicle (pirin; TMT): 2.3 fold | logFC pirin (PIR, O00625), PDP vs Veh (pirin; TMT): -1.208 | chromatographic logD [1]: 2.7 | solubility kinetic at 120 min [2]: 2 µM (≈ 1.89 µg/mL) | First-order decay rate constant ([3]; pH 7.4 PBS, n=2, Figure S1): 0.0038 min⁻¹ | Half-life (aqueous stability) ([3]; pH 7.4 phosphate buffer): ~3 h | half-life at 100 µM ([3]; phosphate buffer (PBS), pH 7.4, Half-life (aqueous stability), pH 7.4 phosphate buffer): 180 min
